The target in experiment [1] is Epidermal growth factor receptor (Homo sapiens, UniProt P00533). Nature of the experiment: Inhibition of EGFR (unknown origin) using GST-SLP-76 as peptide substrate incubated for 10 mins in presence of [gamma-33P]ATP by scintillation counter assay.
For experiment [2], the target named is T1, Tyrosine-protein kinase ITK/TSK (Homo sapiens) (UniProt Q08881).
T1 sequence (whole entry): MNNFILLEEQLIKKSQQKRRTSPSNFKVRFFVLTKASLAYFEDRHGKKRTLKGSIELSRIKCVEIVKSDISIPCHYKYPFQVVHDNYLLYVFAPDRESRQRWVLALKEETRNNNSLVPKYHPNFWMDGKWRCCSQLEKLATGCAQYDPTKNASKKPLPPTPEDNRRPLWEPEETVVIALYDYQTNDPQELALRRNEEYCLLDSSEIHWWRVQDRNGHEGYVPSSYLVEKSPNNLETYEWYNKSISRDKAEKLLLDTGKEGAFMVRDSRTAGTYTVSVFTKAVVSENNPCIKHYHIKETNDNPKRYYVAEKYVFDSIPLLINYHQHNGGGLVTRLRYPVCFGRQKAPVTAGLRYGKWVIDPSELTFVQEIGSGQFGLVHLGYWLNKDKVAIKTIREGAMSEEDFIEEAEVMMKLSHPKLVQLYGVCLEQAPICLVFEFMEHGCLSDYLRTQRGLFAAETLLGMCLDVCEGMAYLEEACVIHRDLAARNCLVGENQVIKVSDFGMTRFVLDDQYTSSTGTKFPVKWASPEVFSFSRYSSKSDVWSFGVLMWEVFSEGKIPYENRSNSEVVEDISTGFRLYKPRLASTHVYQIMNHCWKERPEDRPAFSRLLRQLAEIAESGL
Nature of the experiment: Inhibition of Itk in human Jurkat T cells assessed as inhibition of IL-2 secretion incubated for 16 hrs in presence of anti-CD3 antibody G19-4 by ELISA analysis. Type of experiment: cell-based. For orientation: ELISA stands for enzyme-linked immunosorbent assay.

Experiment [3] addresses T1, Tyrosine-protein kinase ITK/TSK (Homo sapiens). Kind of experiment: Inhibition of Itk in human PBMC cells assessed as inhibition of IL-2 secretion incubated for 16 hrs in presence of anti-CD3 antibody G19-4 by ELISA analysis. Type of experiment: cell-based.
Experiment [4] concerns Mus musculus. Nature of the experiment: In vivo inhibition of IL-2 production in Balb/c mouse serum administered for 15 mins in presence of anti-CD3 antibody by ELISA analysis. The format is functional, organism-based. The note with it: dose 50-100 mg/kg, route sc.
Experiment [5] has as its target Cyclin-dependent kinase 2 (Homo sapiens, UniProt P24941). Nature of the experiment: Inhibition of Cdk2 (unknown origin) using GST-SLP-76 as peptide substrate incubated for 10 mins in presence of [gamma-33P]ATP by scintillation counter assay.

Some results are limits rather than exact numbers.

Sequence of Epidermal growth factor receptor (P00533 whole entry): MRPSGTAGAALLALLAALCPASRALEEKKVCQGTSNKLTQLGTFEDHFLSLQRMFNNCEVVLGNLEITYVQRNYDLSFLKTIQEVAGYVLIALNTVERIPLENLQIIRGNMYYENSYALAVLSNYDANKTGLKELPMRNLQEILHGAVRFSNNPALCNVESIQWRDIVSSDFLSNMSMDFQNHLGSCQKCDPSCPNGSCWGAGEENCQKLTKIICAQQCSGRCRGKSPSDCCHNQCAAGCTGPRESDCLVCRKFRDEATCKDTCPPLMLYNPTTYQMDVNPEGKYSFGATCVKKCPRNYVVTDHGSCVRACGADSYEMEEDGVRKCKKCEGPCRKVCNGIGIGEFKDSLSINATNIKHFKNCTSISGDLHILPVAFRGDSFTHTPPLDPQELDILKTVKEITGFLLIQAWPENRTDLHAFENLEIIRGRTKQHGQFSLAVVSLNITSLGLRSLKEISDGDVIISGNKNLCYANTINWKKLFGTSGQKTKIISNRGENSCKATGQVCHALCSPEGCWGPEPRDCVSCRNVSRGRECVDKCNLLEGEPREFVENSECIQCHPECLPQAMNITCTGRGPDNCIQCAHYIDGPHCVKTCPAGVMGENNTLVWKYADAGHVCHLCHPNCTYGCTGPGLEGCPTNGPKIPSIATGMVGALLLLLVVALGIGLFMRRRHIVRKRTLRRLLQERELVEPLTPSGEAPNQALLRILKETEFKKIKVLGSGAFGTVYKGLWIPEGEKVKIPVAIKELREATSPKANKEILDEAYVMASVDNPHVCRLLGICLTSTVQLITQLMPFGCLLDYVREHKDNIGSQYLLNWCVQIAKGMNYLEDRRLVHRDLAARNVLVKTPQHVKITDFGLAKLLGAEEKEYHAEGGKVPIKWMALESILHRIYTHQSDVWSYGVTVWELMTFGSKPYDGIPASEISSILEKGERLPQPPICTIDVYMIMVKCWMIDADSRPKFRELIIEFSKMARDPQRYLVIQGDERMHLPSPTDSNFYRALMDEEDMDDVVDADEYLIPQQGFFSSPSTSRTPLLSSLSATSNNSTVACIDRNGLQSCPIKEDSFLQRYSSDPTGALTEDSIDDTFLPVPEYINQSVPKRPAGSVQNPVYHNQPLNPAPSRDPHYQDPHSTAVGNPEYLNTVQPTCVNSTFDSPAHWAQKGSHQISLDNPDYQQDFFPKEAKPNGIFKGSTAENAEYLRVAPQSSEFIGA

The term IC50 denotes the midpoint of a concentration-inhibition curve. On to `CC(=O)N1CCN(C(=O)c2cc(CSc3cnc(NC(=O)c4ccc(CNC(C)C(C)(C)C)cc4)s3)cc(C)c2C)CC1` (stereo not given), for which the IC50 in experiment [1] was above 50 µM. Moreover, the inhibition result in experiment [2], in experiment [3] and in experiment [4] was “Dose-Dependent Effect” throughout.

Take `COc1cc(C)c(Sc2cnc(NC(=O)c3ccc(CNC(C)C(C)(C)C)cc3)s2)cc1C(=O)N1CCN(C(C)=O)CC1` (stereo not given): the concentration for half-maximal inhibition (IC50) in experiment [5] turned out to be 29 µM.

These data come from ChEMBL document CHEMBL5715936, “Selective Itk inhibitors block T-cell activation and murine lung inflammation” (Biochemistry, 2004).
